The values below come from US12264134B2 (Merck Sharp & Dohme LLC, priority 2018, dated 2025).

For this test, the target named is IDO1 (Homo sapiens, UniProt P14902). The test can be described thus: IDO1 Cellular Assay in HeLa Cells Stimulated with IFNγ. It is filed as cell-based. As to conditions: read-out: HeLa Cell Potency, IC50.
Chain of IDO1 (P14902 whole entry): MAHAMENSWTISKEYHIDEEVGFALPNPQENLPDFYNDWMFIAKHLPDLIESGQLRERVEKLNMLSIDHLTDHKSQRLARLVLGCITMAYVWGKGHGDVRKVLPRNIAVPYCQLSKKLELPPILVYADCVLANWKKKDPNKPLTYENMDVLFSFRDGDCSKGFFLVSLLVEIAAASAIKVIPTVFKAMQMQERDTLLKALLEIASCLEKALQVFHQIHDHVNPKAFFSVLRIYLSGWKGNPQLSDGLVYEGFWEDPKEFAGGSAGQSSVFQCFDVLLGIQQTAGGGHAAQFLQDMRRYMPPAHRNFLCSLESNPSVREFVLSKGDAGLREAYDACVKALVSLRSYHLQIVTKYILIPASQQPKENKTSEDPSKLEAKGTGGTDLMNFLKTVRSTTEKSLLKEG
With `Cc1cccc(N2CCN(C(=O)Cn3nc(C(=O)N4CC[C@@H](N)[C@@H](C)C4)c4c3CCC4)CC2)c1C` [Example 198, 2-{3-[(3S,4R)-4-amino-3-methylpiperidine-1-carbonyl]-5,6-dihydrocyclopenta[c]pyrazol-1(4H)-yl}-1-[4-(2,3-dimethylphenyl)piperazin-1-yl]ethan-1-one], the concentration for half-maximal inhibition (IC50) amounted to 89.6 nM. To `Cc1cccc(N2CCN(C(=O)Cn3nc(C(=O)N4CC5CNC5C4)c4c3CCC4)CC2)c1C` (stereo not drawn) [Example 199, 2-[3-(3,6-diazaspiro[3.2.0]heptane-3-carbonyl)-5,6-dihydrocyclopenta[c]pyrazol-1(4H)-yl]-1-[4-(2,3-dimethylphenyl)piperazin-1-yl]ethan-1-one] belongs 19 nM; to `Cc1cccc(N2CCN(C(=O)Cn3nc(C(=O)N4CCC(N)CC4)c4c3CCC4)CC2)c1C` [Example 200, 2-[3-(4-aminopiperidine-1-carbonyl)-5,6-dihydrocyclopenta[c]pyrazol-1(4H)-yl]-1-[4-(2,3-dimethylphenyl)piperazin-1-yl]ethan-1-one], 26.6 nM. To `Cc1cccc(N2CCN(C(=O)Cn3nc(C(=O)N4CC[C@@H](F)[C@@H](O)C4)c4c3CCC4)CC2)c1C` [Example 204, 1-[4-(2,3-dimethylphenyl)piperazin-1-yl]-2-[3-[(3S,4R)-4-fluoro-3-hydroxy-piperidine-1-carbonyl]-5,6-dihydro-4H-cyclopenta[c]pyrazol-1-yl]ethanone] belongs 13.1 nM; to `Cc1cccc(N2CCN(C(=O)Cn3nc(C(=O)N4CCC(O)C(F)(F)C4)c4c3CCC4)CC2)c1C` (stereo not drawn) [Example 205, 2-[3-(3,3-difluoro-4-hydroxy-piperidine-1-carbonyl)-5,6-dihydro-4H-cyclopenta[c]pyrazol-1-yl]-1-[4-(2,3-dimethylphenyl)piperazin-1-yl]ethanone], 17.1 nM; to `Cc1cccc(N2CCN(C(=O)Cn3nc(C(=O)N4CC[C@@H](N)[C@H](F)C4)c4c3CCC4)CC2)c1C` [Example 207, [(3R,4R)-1-[1-[2-[4-(2,3-dimethylphenyl)piperazin-1-yl]-2-oxo-ethyl]-5,6-dihydro-4H-cyclopenta[c]pyrazole-3-carbonyl]-3-fluoro-4-piperidyl]ammonium;formate], 28 nM. To `Cc1cccc(N2CCN(C(=O)Cn3nc(C(=O)N4CC[C@H](N)[C@H](F)C4)c4c3CCC4)CC2)c1C` [Example 211, [(3R,4S)-1-[1-[2-[4-(2,3-dimethylphenyl)piperazin-1-yl]-2-oxo-ethyl]-5,6-dihydro-4H-cyclopenta[c]pyrazole-3-carbonyl]-3-fluoro-4-piperidyl]ammonium;formate] belongs 72.1 nM; to `Cc1cccc(N2CCN(C(=O)Cn3nc(C(=O)N4CCC(F)(F)C(O)C4)c4c3CCC4)CC2)c1C` (stereo not drawn) [Example 212, 2-[3-(4,4-difluoro-3-hydroxy-piperidine-1-carbonyl)-5,6-dihydro-4H-cyclopenta[c]pyrazol-1-yl]-1-[4-(2,3-dimethylphenyl)piperazin-1-yl]ethanone], 79.9 nM.

Consider `Cc1cccc(N2CCN(C(=O)Cn3nc(C(=O)N4CC[C@@H](N)[C@@H](F)C4)c4c3CCC4)CC2)c1C` [Example 214, [(3S,4R)-1-[1-[2-[4-(2,3-dimethylphenyl)piperazin-1-yl]-2-oxo-ethyl]-5,6-dihydro-4H-cyclopenta[c]pyrazole-3-carbonyl]-3-fluoro-4-piperidyl]ammonium;formate], for which the IC50 is 105 nM.

As for `Cc1cccc(N2CCN(C(=O)Cn3nc(C(=O)N4CCCCC45CC5)c4c3C[C@H]3C[C@@H]43)CC2)c1C` [Example 215, 2-[(3bR,4aSR)-3-(4-azaspiro[2.5]octane-4-carbonyl)-3b,4,4a,5-tetrahydro-1H-cyclopropa[3,4]cyclopenta[1,2-c]pyrazol-1-yl]-1-[4-(2,3-dimethylphenyl)piperazin-1-yl]ethan-1-one], the IC50 was determined as 1.38 nM.

Turning to `Cc1cccc(N2CCN(C(=O)Cn3nc(C(=O)N4CCC(O)CC4(C)C)c4c3C[C@H]3C[C@@H]43)CC2)c1C` (stereo partly drawn) [Example 216, 1-[4-(2,3-dimethylphenyl)piperazin-1-yl]-2-[(3bR,4aR)-3-(4-hydroxy-2,2-dimethylpiperidine-1-carbonyl)-3b,4,4a,5-tetrahydro-1H-cyclopropa[3,4]cyclopenta[1,2-c]pyrazol-1-yl]ethan-1-one], the half-inhibitory concentration (IC50) was 7.25 nM.

On to `CNC(=O)NC1CCN(C(=O)c2nn(CC(=O)N3CCN(c4cccc(C)c4C)CC3)c3c2[C@@H]2C[C@@H]2C3)CC1` [Example 217, 1-(1-((3bR,4aR)-1-(2-(4-(2,3-dimethylphenyl)piperazin-1-yl)-2-oxoethyl)-3b,4,4a,5-tetrahydro-1H-cyclopropa[3,4]cyclopenta[1,2-c]pyrazole-3-carbonyl)piperidin-4-yl)-3-methylurea], for which the IC50 turned out to be 2.1 nM. To `Cc1cccc(N2CCN(C(=O)Cn3nc(C(=O)N4CC[C@@H]5[C@H](CCC(=O)N5C)C4)c4c3C[C@H]3C[C@@H]43)CC2)c1C` [Example 218, (4aR,8aR)-6-((3bR,4aR)-1-(2-(4-(2,3-dimethylphenyl)piperazin-1-yl)-2-oxoethyl)-3b,4,4a,5-tetrahydro-1H-cyclopropa[3,4]cyclopenta[1,2-c]pyrazole-3-carbonyl)-1-methyloctahydro-1,6-naphthyridin-2(1H)-one] belongs 0.64 nM. Regarding `Cc1cccc(N2CCN(C(=O)Cn3nc(C(=O)N4CCC5(CC4)CC(=O)N5)c4c3C[C@H]3C[C@@H]43)CC2)c1C` [Example 219, 7-[(3bR,4aR)-1-{2-[4-(2,3-dimethylphenyl)piperazin-1-yl]-2-oxoethyl}-3b,4,4a,5-tetrahydro-1H-cyclopropa[3,4]cyclopenta[1,2-c]pyrazole-3-carbonyl]-1,7-diazaspiro[3.5]nonan-2-one], the half-maximal inhibitory concentration (IC50) stood at 0.86 nM. For the molecule `Cc1cccc(N2CCN(C(=O)Cn3nc(C(=O)N4CCC(C)(C(N)=O)CC4)c4c3C[C@H]3C[C@@H]43)CC2)c1C` [Example 220, 1-[(3bR,4aR)-1-{2-[4-(2,3-dimethylphenyl)piperazin-1-yl]-2-oxoethyl}-3b,4,4a,5-tetrahydro-1H-cyclopropa[3,4]cyclopenta[1,2-c]pyrazole-3-carbonyl]-4-methylpiperidine-4-carboxamide], the IC50 was determined as 1.53 nM. As for `Cc1cccc(N2CCN(C(=O)Cn3nc(C(=O)N4CCC(CO)(CO)CC4)c4c3C[C@H]3C[C@@H]43)CC2)c1C` [Example 221, 2-{(3bR,4aR)-3-[4,4-bis(hydroxymethyl)piperidine-1-carbonyl]-3b,4,4a,5-tetrahydro-1H-cyclopropa[3,4]cyclopenta[1,2-c]pyrazol-1-yl}-1-[4-(2,3-dimethylphenyl)piperazin-1-yl]ethan-1-one], the figure is 3.76 nM; as for `Cc1cccc(N2CCN(C(=O)Cn3nc(C(=O)N4CCC(NS(N)(=O)=O)CC4)c4c3C[C@H]3C[C@@H]43)CC2)c1C` [Example 222, N-{1-[(3bR,4aR)-1-{2-[4-(2,3-dimethylphenyl)piperazin-1-yl]-2-oxoethyl}-3b,4,4a,5-tetrahydro-1H-cyclopropa[3,4]cyclopenta[1,2-c]pyrazole-3-carbonyl]piperidin-4-yl}sulfuric diamide], 6.23 nM. Consider `Cc1cccc(N2CCN(C(=O)Cn3nc(C(=O)N4CC[C@@H](C#N)C4)c4c3C[C@H]3C[C@@H]43)CC2)c1C` [Example 223, (3R)-1-[(3bR,4aR)-1-{2-[4-(2,3-dimethylphenyl)piperazin-1-yl]-2-oxoethyl}-3b,4,4a,5-tetrahydro-1H-cyclopropa[3,4]cyclopenta[1,2-c]pyrazole-3-carbonyl] pyrrolidine-3-carbonitrile], for which the half-inhibitory concentration (IC50) was found to be 1.49 nM. As for `Cc1cccc(N2CCN(C(=O)Cn3nc(C(=O)N4CCCC5(C4)NC(=O)NC5=O)c4c3C[C@H]3C[C@@H]43)CC2)c1C` (stereo partly drawn) [Example 224, 7-[(3bR,4aR)-1-{2-[4-(2,3-dimethylphenyl)piperazin-1-yl]-2-oxoethyl}-3b,4,4a,5-tetrahydro-1H-cyclopropa[3,4]cyclopenta[1,2-c]pyrazole-3-carbonyl]-1,3,7-triazaspiro[4.5]decane-2,4-dione], the figure is 16.5 nM. Regarding `Cc1cccc(N2CCN(C(=O)Cn3nc(C(=O)N4CCCC(N5CCCC5=O)C4)c4c3C[C@H]3C[C@@H]43)CC2)c1C` (stereo partly drawn) [Example 225, 1-{1-[(3bR,4aR)-1-{2-[4-(2,3-dimethylphenyl)piperazin-1-yl]-2-oxoethyl}-3b,4,4a,5-tetrahydro-1H-cyclopropa[3,4]cyclopenta[1,2-c]pyrazole-3-carbonyl]piperidin-3-yl}pyrrolidine-2-one], the half-inhibitory concentration (IC50) came out at 3.93 nM. As for `Cc1cccc(N2CCN(C(=O)Cn3nc(C(=O)N4CCCC(N5CCNC5=O)C4)c4c3C[C@H]3C[C@@H]43)CC2)c1C` (stereo partly drawn) [Example 226, 1-{1-[(3bR,4aR)-1-{2-[4-(2,3-dimethylphenyl)piperazin-1-yl]-2-oxoethyl}-3b,4,4a,5-tetrahydro-1H-cyclopropa[3,4]cyclopenta[1,2-c]pyrazole-3-carbonyl]piperidin-3-yl}imidazolidin-2-one], the figure is 6.33 nM. To `Cc1cccc(N2CCN(C(=O)Cn3nc(C(=O)N4CCC5(CC4)CNC(=O)N5C)c4c3C[C@H]3C[C@@H]43)CC2)c1C` [Example 227, 8-[(3bR,4aR)-1-{2-[4-(2,3-dimethylphenyl)piperazin-1-yl]-2-oxoethyl}-3b,4,4a,5-tetrahydro-1H-cyclopropa[3,4]cyclopenta[1,2-c]pyrazole-3-carbonyl]-1-methyl-1,3,8-triazaspiro[4.5]decan-2-one] belongs 2.19 nM; to `Cc1cccc(N2CCN(C(=O)Cn3nc(C(=O)N4CCC(N5CCCC5=O)CC4)c4c3C[C@H]3C[C@@H]43)CC2)c1C` [Example 228, 1-{2-[(3bR,4aR)-1-{2-[4-(2,3-dimethylphenyl)piperazin-1-yl]-2-oxoethyl}-3b,4,4a,5-tetrahydro-1H-cyclopropa[3,4]cyclopenta[1,2-c]pyrazole-3-carbonyl]piperidin-4-yl}pyrrolidin-2-one], 1 nM; to `Cc1cccc(N2CCN(C(=O)Cn3nc(C(=O)N4CC[C@@H](O)C[C@H]4C)c4c3C[C@H]3C[C@@H]43)CC2)c1C` [Example 231, 1-[4-(2,3-dimethylphenyl)piperazin-1-yl]-2-{(3bR,4aR)-3-[(2R,4R)-4-hydroxy-2-methylpiperidine-1-carbonyl]-3b,4,4a,5-tetrahydro-1H-cyclopropa[3,4]cyclopenta[1,2-c]pyrazol-1-yl}ethan-1-one], 4.38 nM.

A word on the IC50: it is the concentration that inhibits the measured activity by half.
